Target: T1, human sweet taste receptor, hT1R2/hT1R3 (Homo sapiens, UniProt Q7RTX0+Q8TE23)
T1 sequence (Q8TE23 20-839): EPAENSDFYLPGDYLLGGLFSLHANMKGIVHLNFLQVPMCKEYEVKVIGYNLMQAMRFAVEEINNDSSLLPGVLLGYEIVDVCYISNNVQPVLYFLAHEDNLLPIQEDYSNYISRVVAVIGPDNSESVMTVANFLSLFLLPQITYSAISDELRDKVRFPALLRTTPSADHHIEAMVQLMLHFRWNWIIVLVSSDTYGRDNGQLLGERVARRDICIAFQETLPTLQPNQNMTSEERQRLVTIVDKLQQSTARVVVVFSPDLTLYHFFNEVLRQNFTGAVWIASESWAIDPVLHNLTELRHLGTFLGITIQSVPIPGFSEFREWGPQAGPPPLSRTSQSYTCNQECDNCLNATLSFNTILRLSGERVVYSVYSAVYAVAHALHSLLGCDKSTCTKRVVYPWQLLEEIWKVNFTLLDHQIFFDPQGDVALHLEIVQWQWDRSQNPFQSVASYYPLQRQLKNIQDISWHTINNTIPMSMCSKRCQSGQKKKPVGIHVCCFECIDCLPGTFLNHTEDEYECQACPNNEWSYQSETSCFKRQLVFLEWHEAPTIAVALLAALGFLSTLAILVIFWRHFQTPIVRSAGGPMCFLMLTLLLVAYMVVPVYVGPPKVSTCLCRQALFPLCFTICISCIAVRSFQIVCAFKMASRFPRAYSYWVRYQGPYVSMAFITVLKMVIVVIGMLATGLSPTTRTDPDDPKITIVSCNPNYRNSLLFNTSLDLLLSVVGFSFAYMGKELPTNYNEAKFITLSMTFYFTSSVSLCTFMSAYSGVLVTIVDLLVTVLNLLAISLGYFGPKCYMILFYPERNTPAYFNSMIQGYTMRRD
T1 sequence (Q7RTX0 21-852): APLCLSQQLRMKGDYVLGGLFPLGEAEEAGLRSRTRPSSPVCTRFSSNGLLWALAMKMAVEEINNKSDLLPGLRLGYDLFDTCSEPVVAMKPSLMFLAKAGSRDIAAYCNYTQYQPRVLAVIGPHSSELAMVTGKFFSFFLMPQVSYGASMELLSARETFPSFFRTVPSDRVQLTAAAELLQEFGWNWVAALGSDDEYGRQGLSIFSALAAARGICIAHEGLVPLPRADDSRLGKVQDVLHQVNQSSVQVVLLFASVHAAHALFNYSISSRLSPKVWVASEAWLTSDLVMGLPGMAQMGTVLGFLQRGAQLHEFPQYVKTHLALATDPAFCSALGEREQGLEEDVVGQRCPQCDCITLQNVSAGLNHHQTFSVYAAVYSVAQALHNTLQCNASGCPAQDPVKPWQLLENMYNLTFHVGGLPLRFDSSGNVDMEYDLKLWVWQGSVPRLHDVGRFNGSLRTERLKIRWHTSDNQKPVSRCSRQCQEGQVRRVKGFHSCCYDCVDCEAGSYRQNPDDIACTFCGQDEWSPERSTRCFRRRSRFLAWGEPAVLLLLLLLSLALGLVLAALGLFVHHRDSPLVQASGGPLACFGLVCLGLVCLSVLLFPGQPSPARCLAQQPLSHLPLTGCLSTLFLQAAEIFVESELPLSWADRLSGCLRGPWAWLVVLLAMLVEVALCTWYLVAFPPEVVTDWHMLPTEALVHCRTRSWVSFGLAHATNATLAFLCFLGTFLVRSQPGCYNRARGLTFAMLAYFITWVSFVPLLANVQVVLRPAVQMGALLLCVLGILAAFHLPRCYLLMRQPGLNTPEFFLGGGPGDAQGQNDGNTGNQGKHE
Assay: Luminescence assay
Format: cell-based
Details: aequorin assay, 10–40 nM BCECF

nonspecific signals: did not produce nonspecific signals
Substance: 2′,7′-bis-(2-carboxyethyl)-5-(and-6)-carboxyfluorescein [BCECF]

From publication PMC3217308 (Journal of Agricultural and Food Chemistry, 2011)
